The results in this text go back to patent publication US20110166149A1, “PTERIDINE DERIVATIVES FOR TREATING RESPIRATORY DISEASE” (TARGEGEN INC., priority 2008, published 2011).

One may read the solubility as how much of the substance goes into solution per volume.

Values joined by “and” are separate entries in the source; they are usually repeats but may differ in a detail not shown here. Identical values can stand only once. Like-named read-outs stand apart in the source and are kept apart here.

A short description of data set [1]: Solubility of Compound A. Format: physicochemical.
Data set [2] in a line: Lung exposure in mice, nose-only chamber nebulization (Example 3). It is filed as in vivo, Balb/c mice. The conditions noted are these: 30 min nebulization, immediately after. As to the method:
A series of compositions for pulmonary delivery were prepared by making a 20% suspension of compound A in a 5% tyloxapol solution in water. Particle size reduction was achieved using a colloid mill (magicLAB®, MK module, for 6 hours @ 12,000 rpm, while maintaining a temperature below 50° C.). Samples at 4% compound A were prepared by dilution with DI water. A 0.4% compound A suspension in 0.1% tyloxapol solution, was made by dilution with SWFI (6.02 g of the 20% suspension was QS to 30.23 g with SWFI).
0.4% compound A suspension in 0.1% tyloxapol solution: 2.07 g of a 4% compound A suspension was diluted to 20 g with DI water.
0.04% compound A suspension in 0.01% tyloxapol solution: 2.03 g of a 0.4% compound A suspension was diluted to 20 g with DI water. 0.004% compound A suspension in 0.001% tyloxapol solution: 2.05 g of a 0.04% compound A suspension was diluted to 20 g with DI water.
Compositions were delivered via a nose-only chamber (CH Technologies) to Balb/c mice by nebulizing for 30 minutes the composition with a PARI LC plus at 3 LPM with a 5 LPM dilutor (of dry air), tissues, plasma and BALF (3 mL used of PBS) collected after sacrificing immediately after nebulization, and were analyzed by HPLC-MS.

Data set [3] is described as follows: Stability / precipitation of compound A solutions at pH ~3 (Examples 5, 6). Format: physicochemical. As to the method: 36 mg of compound A was dissolved with the aid of 0.5 N HCl (QS to 1 g) under mixing and heat. 200 μL of this solution was mixed using a sonicator bath, if necessary with a separately prepared solution containing 1.8 mg of a 0.02% tyloxapol/2% PVP 90F and 34 μL of a 2 N NaOH, to give a final concentration of ˜3.3 mg/mL of compound A at a pH of ˜3. […] 200 μL of the above solution was mixed using a sonicator bath, if necessary with a solution containing 1.8 mg of a 0.02% tyloxapol/2% PVP 90F and 10 μL of a 2 N NaOH, to give a final concentration of ˜5 mg/mL of compound A at a pH of ˜3. This solution will start precipitating ˜20 min.

Setting [4] is: formulation conc. 0.004%, individual animals 3A-3E.
The mark [5] stands for this setting: formulation conc. 0.04%, individual animals 2A-2E.
[6] abbreviates: formulation conc. 0.40%, individual animals 1A-1E.

Turning to `Nc1nc(N)c2nc(-c3cccc(O)c3)c(-c3cccc(O)c3)nc2n1` [Compound A, 6,7-bis(3-hydroxyphenyl)-pteridine-2,4-diamine], the “dissolution in organic solvents” value in data set [1] (DMSO and selected aprotic solvents with high dielectric constants) is reported as “readily dissolves”. Further, the solubility result in data set [1] (between pH of 3 and 9) was “negligible solubility”; in data set [1] (water, aqueous buffer, pH below 2 and above 10, read-out: water solubility), more than 20 mg/mL. The “Compound A concentration BALF” value in data set [2] (formulation conc. 0.004%, Mean) is 22.9 ± 34.0 ng/mL; in data set [2] (setting [4]), 83.6 ng/mL and 10.0 ng/mL and 7.84 ng/mL and 7.82 ng/mL and 4.99 ng/mL; in data set [2] (formulation conc. 0.04%, Mean), 71.6 ± 38.4 ng/mL; in data set [2] (setting [5]) it was 62.6 ng/mL and 93 ng/mL and 92.1 ng/mL and 102 ng/mL and 8.19 ng/mL; in data set [2] (formulation conc. 0.40%, Mean), 1870 ± 1902 ng/mL; in data set [2] (setting [6]) it was 1370 ng/mL and 5240 ng/mL and 1200 ng/mL and 804 ng/mL and 737 ng/mL. Further, the “Compound A concentration Lung” value in data set [2] (formulation conc. 0.004%, Mean) was 0.12 ± 0.02 µg/g; in data set [2] (setting [4]) it was 0.14 μg/g and 0.12 μg/g and 0.10 μg/g (2×) and 0.13 μg/g; in data set [2] (formulation conc. 0.04%, Mean) it was 1.48 ± 0.49 µg/g; in data set [2] (setting [5]) it was 2.3 µg/g and 1.0 µg/g and 1.5 µg/g and 1.4 µg/g and 1.3 µg/g; in data set [2] (formulation conc. 0.40%, Mean), 6.7 ± 1.1 µg/g; in data set [2] (setting [6]) it was 8.2 μg/g and 32.1(?) μg/g and 6.1 μg/g and 6.5 μg/g and 5.9 μg/g. Further, the “Compound A concentration Plasma” value was “<LLOQ” in data set [2] (formulation conc. 0.004%, Mean); “<LLOQ” in data set [2] (setting [4]); “<LLOQ (4×) and 6.37 ng/mL” in data set [2] (setting [5]); 5.16 ± 2.39 ng/mL in data set [2] (formulation conc. 0.40%, Mean); 2.51 ng/mL and 3.98 ng/mL and 8.46 ng/mL and 6.73 ng/mL and 4.1 ng/mL in data set [2] (setting [6]). In data set [3] (~3.3 mg/mL, pH ~3, tyloxapol/PVP 90F (Example 5)), the solution stability entry is “stable for more than an hour”. Moreover, the “time to start of precipitation” value in data set [3] (~5 mg/mL, pH ~3, tyloxapol/PVP 90F (Example 6)) is approximately 20 min.
